Columns and labels:
[1] = tested on: guanine riboswitch xpt/pbuE*6U; experiment: SPRINT compound screen on guanine riboswitch; format: biochemical; conditions: 10 μM and 1 mM for most compounds, solvent signal subtracted, FIG. 9A
Description: Briefly, the transcriptional response of the guanine riboswitch xpt/pbuE*6U to 30 different compounds was measured at two different concentrations each (FIG. 9A and FIG. 10). The concentrations used were 10 μM and 1 mM for most compounds. The signal that was obtained from control experiments with the solvents DMSO or water was subtracted from all values.

[2] = tested on: SPRINT assay without riboswitch (constitutively transcribed Cas13a target); experiment: SPRINT control screen with constitutive promoter template (PAINS identification); conditions: constitutive promoter template, FIG. 9B
Description: The master mix was gently mixed by pipetting up and down and incubated at 37° C. for 15 minutes to allow binding of crRNA to Cas13a protein and the microwell plate was prepared by adding 3 μL of 10× ligand to the wells. The reaction was initiated by addition of rNTPs to the master mix to a concentration of 20 μM and then 27 μL of the complete master mix were added to each well and pipetted up and down to mix with the ligand in the wells. The plate was covered with an optical adhesive film to prevent evaporation of the sample while taking fluorescence measurements in a plate reader that was preheated to 37° C.

[3] = tested on: serotonin riboswitch (P1 aptamer in expression platform pbuE′); experiment: SPRINT assay with synthetic serotonin riboswitch; format: biochemical; conditions: FIG. 4D
Description: (§1) SPRINT reactions. Pentauridine RNA oligonucleotides were labeled with carboxyfluorescein (FAM) or TEX 615 at the 5′-end and with Iowa Black FQ at the 3′-end. Fluorescence measurements were taken at wavelengths 490/525 nm (excitation/emission) when the FAM fluorophore was used. In reactions with flavin-containing ligands, TEX-labeled RNA oligos were used at the wavelengths 576/615 (excitation/emission). Fluorescence measurements were taken every 5 minutes.
(§2) For exemplary SPRINT assays, a master mix was first prepared and then mixed with the remaining reaction reagent components to yield a final reaction volume of 30 μL; fluorescent readings of the entire reaction volume were performed in Corning 384 Flat Bottom Black Polystyrol plates. This master mix (SPRINT buffer, 10×), for assays contemplated herein can include, but is not limited to: 700 mM Tris-HCl, pH 8.0, 700 mM NaCl, 1 mM EDTA, 140 mM β-mercaptoethanol, and 25 mM MgCl2. Aliquots of an exemplary 10× SPRINT buffer were stored at −20° C. and not allowed to undergo more than 10 freeze-thaw cycles.
(§3) The SELEX method (previously described) has been used to select the P1 aptamer that binds to the neurotransmitter serotonin (i.e. 5-hydroxytryptamine) and this aptamer was incorporated into the expression platform pbuE′ to generate a riboswitch for serotonin.

[4] = tested on: S-adenosylmethionine (SAM)-responsive riboswitch yitJ/pbuE*6U; experiment: SPRINT assay with SAM riboswitch; format: biochemical; conditions: FIG. 4A
Description: as §1, §2
In another exemplary method, to test the versatility of SPRINT, small-molecule dependent transcriptional regulation of various riboswitches was examined. […]

[5] = tested on: metE riboswitch; experiment: SPRINT assay with native metE OFF riboswitch (with heparin, single turnover); format: biochemical, B. subtilis; conditions: OFF switch, heparin added, FIG. 7B; read-out: T50 value (reduction of transcriptional rate)
Description: For amplification of the native metE riboswitch from the genome, the following protocol was used: Colony PCR was performed, using the oligos “metE_fwd” (SEQ ID NO: 13) and “metE_rev” (SEQ ID NO: 14) at Tm=64° C. with Q5 DNA polymerase. The constant 5′ and 3′ parts of the SPRINT constructs were also amplified via PCR reactions, using any plasmid with a complete SPRINT sequence as template. The 5′ constant part was amplified with oligos “InsulatorOligo_fwd” (SEQ ID NO:1) and “e.coliProm_rev” (SEQ ID NO: 8). The 3′ constant part was amplified with oligos “RiboswitchBB_fwd” (SEQ ID NO: 7) and “ssDNA1_rev” (SEQ ID NO: 2). […] The PCR product was purified, quantified and used for a SPRINT reaction.
In another exemplary method, certain riboswitches described herein were re-engineered for certain properties such as wide dynamic range and a ligand-induced “ON”. […] Initially, measurements at intermediate concentrations of SAM were difficult to quantify because the high rate of transcription from the B. subtilis metE OFF-switch required very high concentrations of SAM to repress the signal (FIG. 8). […]

[6] = target: zinc-responsive transcription factor smtB (Synechococcus elongatus, UniProt P30340); experiment: biochemical
Description: In other exemplary methods, reactions with allosteric transcription factors (aTFs), ROSALIND reagent buffer (10× buffer containing, for assays contemplated herein, but not limited to: 400 mM Tris-HCl, pH 8.0, 200 mM NaCl, 20 mM spermidine, 100 mM DTT and 80 mM MgCl2) were used. The buffer was prepared fresh or stored as single-use aliquots at −80° C. […] The final concentration of the aTF monomers was either 2.5 μM tetR or 10 μM smtB. The master mix was incubated for 15 minutes at 37° C. which allows the aTFs to bind to the operator sequence.
In another exemplary method, bacterial transcription can be regulated by allosteric transcription factors (aTFs), such as activators or repressors, which have previously been used for small molecule detection. Another system (“ROSALIND”) enabled rapid detection of compounds via aTFs. […] The ROSALIND buffer system differs from the SPRINT or SHERLOCK buffer. Therefore, it was tested whether aTF-based ROSALIND reactions could be integrated with the Cas13a-based detection method. To simplify the system, the inorganic pyrophosphatase (IPPase) enzyme was first removed from the ROSALIND system. IPPase was used in transcription reactions to degrade pyrophosphate which was a reaction product of the RNA polymerase and can inhibit the reaction. […] Adaptions included reducing the concentrations of rNTP from 2.85 mM to 40 μM, DNA template from 25 to 15 nM, and T7 RNAP from 10 to 6.7 ng/μL.
The responses of the de-repressors tetR and smtB were measured with SPRINT.

[7] = tested on: flavin mononucleotide (FMN) riboswitch ribD/pbuE*7U; experiment: SPRINT assay with FMN riboswitch; format: biochemical, B. subtilis; conditions: 10 mM MgCl2, FIG. 4B
Description: as §1, §2
Initially, the observed ligand-dependent induction of the FMN riboswitch was very low. To improve this, the magnesium concentration in the SPRINT reaction was increased. […] Therefore, SPRINT reactions with the ribD/pbuE*7U riboswitch were conducted at 10 mM MgCl2 in these exemplary studies.

[8] = tested on: adenine riboswitch pbuE/pbuE‡; experiment: SPRINT assay with adenine riboswitch; format: biochemical; conditions: FIG. 3D
Description: as §1
as §2, with “Aliquots of an exemplary 10× SPRINT buffer were stored at −20° C. and not allowed to undergo more than 10 freeze-thaw cycles.” left out
The transcriptional response of the well-characterized guanine riboswitch xpt/pbuE*6U and the adenine-responsive riboswitch pbuE/pbuE‡ to their respective ligand was measured by SPRINT and the radiolabeling method. The radiolabeling method used ^32P-labeled ATP for single turnover transcription assays, subsequent separation of the transcripts on an acrylamide gel, exposure to a phospho screen and quantification of the band intensities. […]

[9] = tested on: FMN riboswitch ribB; conditions: E. coli ribB; cited from earlier work
[10] = tested on: FMN riboswitch; conditions: cited from earlier work
[11] = tested on: transcription and Cas13 reaction; experiment: Effect of agents on fluorescent signal of one-batch and two-batch assays; format: biochemical; conditions: FIGS. 6D-6F
Description: In another exemplary method, two-batch methods included, 30 μL in vitro transcription reactions carried out as described above but without addition of Cas13a, crRNA, labeled RNA oligos, RNase inhibitor. Then, the reaction was washed three times with 500 μL ddH2O using an centrifugal filter (0.5 ml, 10 kDa cutoff). After concentrating the solution to approximately 20 μL, aliquots of 6 μL were taken and added to a 24 μL of a SHERLOCK reaction (described below).
as §3

[12] = target: T1, purine nucleoside phosphorylase (hPNP) (Homo sapiens, UniProt P00491); experiment: Enzyme-coupled SPRINT assay (inosine to hypoxanthine, guanine riboswitch xpt/pbuE*6U); format: biochemical
T1 sequence (P00491 1-289): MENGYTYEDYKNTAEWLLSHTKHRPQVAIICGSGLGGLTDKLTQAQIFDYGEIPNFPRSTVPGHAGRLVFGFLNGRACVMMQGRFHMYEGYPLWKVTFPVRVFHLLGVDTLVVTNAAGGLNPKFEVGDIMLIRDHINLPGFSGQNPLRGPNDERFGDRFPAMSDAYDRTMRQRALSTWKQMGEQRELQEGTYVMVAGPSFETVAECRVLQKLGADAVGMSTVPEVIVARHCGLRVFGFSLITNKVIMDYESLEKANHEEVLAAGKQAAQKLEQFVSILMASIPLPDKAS
Excerpt: As part of the human purine metabolism, the enzyme purine nucleoside phosphorylase (hPNP) can catalyze the phosphorylation of the ribose moiety of various purines and thereby remove the sugar from the nucleobase. The conversion of deoxyguanosine to deoxyguanine by hPNP can be inhibited with nucleoside analogs such as Immucillin-H (forodesine) which leads to accumulation of deoxyguanosine and consequent apoptosis in activated T-cells. Therefore, hPNP is an important drug target for the treatment for example, of leukemia, arthritis, multiple sclerosis and transplant rejection.
In these systems, the conversion of inosine to hypoxanthine via hPNP was coupled to the SPRINT reaction in a one-batch buffer system using the guanine riboswitch xpt/pbuE*6U (FIG. 9D).

zinc-responsive transcription factor smtB, sequence (P30340 whole entry): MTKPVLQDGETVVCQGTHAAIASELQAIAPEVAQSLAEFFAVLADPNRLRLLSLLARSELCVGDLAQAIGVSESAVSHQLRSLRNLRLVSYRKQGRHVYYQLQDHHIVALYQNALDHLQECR

## CNc1nc2nc[nH]c2c(=O)[nH]1 [N2-methylguanine]
[1]
  transcriptional response at low and high concentration: only caused a strong transcriptional response at high concentrations
[2]
  interference with SPRINT assay (PAINS): interfering compounds

## NCCc1c[nH]c2ccccc12 [tryptamine]
[3]
  discrimination by serotonin riboswitch: discriminated specifically against

## C[S+](CC[C@H](N)C(=O)O)C[C@H]1O[C@@H](n2cnc3c(N)ncnc32)[C@H](O)[C@@H]1O (some centres unmarked) [SAM, S-adenosylmethionine]
[4]
  response of SAM riboswitch to ligand: responsive
[5]
  EC50: ~1000 nM

## CNc1ncnc2nc[nH]c12 [N6-methyladenine]
[1]
  transcriptional response at low and high concentration: did not cause a transcriptional response at low or high concentrations

## [Zn+2] [zinc]
[6]
  EC50: 4800 ± 300 nM
[6]; FIG. 7C
  selectivity versus control copper: high selectivity

## Cc1cc2nc3c(=O)[nH]c(=O)nc-3n(C[C@H](O)[C@H](O)[C@H](O)COP(=O)(O)OP(=O)(O)OC[C@H]3O[C@@H](n4cnc5c(N)ncnc54)[C@H](O)[C@@H]3O)c2cc1C [flavin adenine dinucleotide (FAD), flavin adenine dinucleotide]
[7]
  response / activation of FMN riboswitch: low-affinity response

## Nc1ncnc2nc[nH]c12 [adenine]
[8]
  response of adenine riboswitch to ligand: responded efficiently

## Nc1nc2c(c(=O)[nH]1)CC=N2 [7-deazaguanine]
[1]
  transcriptional response at low and high concentration: some activation of transcription at low concentrations but no or reduced activation at high concentrations
[2]
  interference with SPRINT assay (PAINS): interfering compounds

## Cc1cc2nc3c(=O)[nH]c(=O)nc-3n(C[C@H](O)[C@H](O)[C@H](O)COP(=O)(O)O)c2cc1C [FMN, flavin mononucleotide]
[7]; read-out: T50 value (ligand concentration at half-maximal activation of transcription)
  EC50: ~1010 nM

## O=c1cc(-c2cccs2)nc([C@H]2CCCN(Cc3cn(-c4ncccn4)cn3)C2)[nH]1 [ribocil-C]
[9]
  agonism of FMN riboswitch ribB: strong agonist
[7]
  response / activation of FMN riboswitch: no observable activation
[10]
  agonism of FMN riboswitch from F. nucleatum: strong agonist

## Nc1nc2nc[nH]c2c(=O)[nH]1 [guanine]
[1]
  transcriptional response at low and high concentration: equally strong transcriptional activation at low and high concentrations
[8]
  response of adenine riboswitch to ligand: not

## N[C@@H](Cc1c[nH]c2ccc(O)cc12)C(=O)O [5-hydroxytryptophan]
[11]
  inhibitory effect on transcription and Cas13 reaction: did not cause inhibitory effects

## O=c1[nH]cnc2c([C@@H]3N[C@H](CO)[C@@H](O)[C@H]3O)c[nH]c12 [Immucillin-H]
[12]; inhibitor at 100-fold lower concentration than substrate inosine, FIG. 9E
  effect on hPNP enzymatic activity: significant reduction in the enzymatic activity

## OC[C@H]1O[C@@H](n2cnc3c(O)ncnc32)[C@H](O)[C@@H]1O [inosine]
[12]; FIG. 9F
  hypoxanthine production by hPNP on titration: concentration-dependent increase

## NCCc1c[nH]c2ccc(O)cc12 [serotonin, 5-hydroxytryptamine]
[11]
  inhibitory effect on transcription and Cas13 reaction: specifically inhibited the transcription and also Cas13 reaction
[3]; read-out: T50 value
  EC50: 5000 ± 3000 nM

From patent publication US20230279482A1, “COMPOSITIONS, METHODS AND USES FOR QUANTIFYING TRANSCRIPTION AND BIOSENSING OF SMALL MOLECULES USING A NOVEL TYPE VI CRISPR-CAS ASSAY” (THE REGENTS OF THE UNIVERSITY OF COLORADO, A BODY CORPORATE, priority 2020, published 2023)
